Measured values from patent US20160090556A1, “PRODUCTS COMPRISING MALODOR REDUCTION MATERIALS” (The Procter & Gamble Company, priority 2014, published 2016).
Where two headings read alike, the source gives them in different places.

What was measured:
[1] = Liquid dish neat product liquid-air partition coefficient; format: physicochemical
[2] = Probability of Ingredient Color Instability; format: physicochemical
[3] = class code letter within Comment Code

Compound	Log of liquid dish neat product liquid-air partition coefficient (Comment Code K/L) [1, 3]	Probability of Ingredient Color Instability (Comment Code E/F) [2, 3]	Log of liquid dish neat product liquid-air partition coefficient (Comment Code K/L) [1]	Probability of Ingredient Color Instability (Comment Code E/F) [2]	also measured
CC1(O)CCOC2(CCCCC2)C1 (stereo not drawn) [Material 16]	K (Log of liquid dish neat product liquid-air partition coefficient greater than or equal to −7)	F (Probability of Ingredient Color Instability<71%)	–	–	–
CC(C)=CCCC1=CCC(C)(C=O)CC1 (stereo not drawn) [Material 988]	–	–	K (Log of liquid dish neat product liquid-air partition coefficient greater than or equal to −7)	F (Probability of Ingredient Color Instability<71%)	–
COC(C)(C)CCCC(C)CC=O (stereo not drawn) [Material 126]	K (Log of liquid dish neat product liquid-air partition coefficient greater than or equal to −7)	F (Probability of Ingredient Color Instability<71%)	–	–	–
CCCCCCCC/C=C\CC=O [Material 884]	–	–	K (Log of liquid dish neat product liquid-air partition coefficient greater than or equal to −7)	F (Probability of Ingredient Color Instability<71%)	–
CC(C)=CCCC1=CCC(C=O)CC1 (stereo not drawn) [Material 211]	K (Log of liquid dish neat product liquid-air partition coefficient greater than or equal to −7)	F (Probability of Ingredient Color Instability<71%)	–	–	–
CCCCCC1C(=O)CCC1CC(=O)OC (stereo not drawn) [Material 113]	K (Log of liquid dish neat product liquid-air partition coefficient greater than or equal to −7)	F (Probability of Ingredient Color Instability<71%)	–	–	–
O=C(Oc1ccccc1)c1ccccc1 [Material 965]	–	–	K (Log of liquid dish neat product liquid-air partition coefficient greater than or equal to −7)	F (Probability of Ingredient Color Instability<71%)	–
CC=CC(=O)OC(C)C1CCCCC1 (stereo not drawn) [Material 475]	K (Log of liquid dish neat product liquid-air partition coefficient greater than or equal to −7)	F (Probability of Ingredient Color Instability<71%)	–	–	–
CC1CC(C)(c2ccccc2)OC(C)O1 (stereo not drawn) [Material 1126]	–	–	–	–	Comment Code: Log of liquid dish neat product liquid-air partition coefficient ([1]; codes K/L of the Comment Code, Table 1): K (Log of liquid dish neat product liquid-air partition coefficient greater than or equal to −7); Comment Code: Probability of Ingredient Color Instability ([2]; codes E/F of the Comment Code, Table 1): F (Probability of Ingredient Color Instability<71%)
CC(C)CCCC(C)CCCC(C)C=O (stereo not drawn) [Material 741]	–	–	K (Log of liquid dish neat product liquid-air partition coefficient greater than or equal to −7)	F (Probability of Ingredient Color Instability<71%)	–
CCCCCC1C(=O)CCC1CC(=O)OC (stereo not drawn) [Material 1083]	–	–	K (Log of liquid dish neat product liquid-air partition coefficient greater than or equal to −7)	F (Probability of Ingredient Color Instability<71%)	–
CCCCCCCCCCC=CC=O [Material 930]	–	–	K (Log of liquid dish neat product liquid-air partition coefficient greater than or equal to −7)	F (Probability of Ingredient Color Instability<71%)	–
C=CC(C)CC/C=C(\C)CCC=O (stereo not drawn) [Material 358]	K (Log of liquid dish neat product liquid-air partition coefficient greater than or equal to −7)	F (Probability of Ingredient Color Instability<71%)	–	–	–
C=C(C)C1CC=C(COC(C)=O)CC1 (stereo not drawn) [Material 947]	–	–	K (Log of liquid dish neat product liquid-air partition coefficient greater than or equal to −7)	F (Probability of Ingredient Color Instability<71%)	–
C=CCc1ccc(OC(C)=O)c(OC)c1 [Material 374]	K (Log of liquid dish neat product liquid-air partition coefficient greater than or equal to −7)	F (Probability of Ingredient Color Instability<71%)	–	–	–
CCCCCCC(CO)C(C)=O (stereo not drawn) [Material 106]	K (Log of liquid dish neat product liquid-air partition coefficient greater than or equal to −7)	F (Probability of Ingredient Color Instability<71%)	–	–	–
O=CCCC=C1CC2CC1C1CCCC21 (stereo not drawn) [Material 418]	K (Log of liquid dish neat product liquid-air partition coefficient greater than or equal to −7)	F (Probability of Ingredient Color Instability<71%)	–	–	–
CC1=CC2CC(C=O)C1CC2C(C)C (stereo not drawn) [Material 142]	K (Log of liquid dish neat product liquid-air partition coefficient greater than or equal to −7)	F (Probability of Ingredient Color Instability<71%)	–	–	–

Compound	Log of liquid dish neat product liquid-air partition coefficient (Comment Code K/L) [1, 3]	Probability of Ingredient Color Instability (Comment Code E/F) [2, 3]	Log of liquid dish neat product liquid-air partition coefficient (Comment Code K/L) [1]	Probability of Ingredient Color Instability (Comment Code E/F) [2]	also measured
CCCCCCCCCC(C)C=O (stereo not drawn) [Material 103]	K (Log of liquid dish neat product liquid-air partition coefficient greater than or equal to −7)	F (Probability of Ingredient Color Instability<71%)	–	–	–
CC(C)=CCCC(C)(O)C1CC=C(C)CC1 (stereo not drawn) [Material 718]	–	–	K (Log of liquid dish neat product liquid-air partition coefficient greater than or equal to −7)	F (Probability of Ingredient Color Instability<71%)	–
CC(C)c1ccc(CCC=O)cc1 [Material 826]	–	–	K (Log of liquid dish neat product liquid-air partition coefficient greater than or equal to −7)	F (Probability of Ingredient Color Instability<71%)	–
CC(C)=CCCC(C)CCCC(C)C=O (stereo not drawn) [Material 757]	–	–	K (Log of liquid dish neat product liquid-air partition coefficient greater than or equal to −7)	F (Probability of Ingredient Color Instability<71%)	–
CC1=C(CCC(C)C=O)C(C)(C)CCC1 (stereo not drawn) [Material 560]	K (Log of liquid dish neat product liquid-air partition coefficient greater than or equal to −7)	F (Probability of Ingredient Color Instability<71%)	–	–	–
CC1CCC2(O1)C(C)(C)CCCC2(C)O (stereo not drawn) [Material 893]	–	–	K (Log of liquid dish neat product liquid-air partition coefficient greater than or equal to −7)	F (Probability of Ingredient Color Instability<71%)	–
C/C=C/c1cc(OC)c(OC)cc1OC [Material 924]	–	–	K (Log of liquid dish neat product liquid-air partition coefficient greater than or equal to −7)	F (Probability of Ingredient Color Instability<71%)	–
C=C(OCC)C1C(C)(C)CC(=O)CC1(C)C [Material 182]	K (Log of liquid dish neat product liquid-air partition coefficient greater than or equal to −7)	F (Probability of Ingredient Color Instability<71%)	–	–	–
CC1(C)C2CC=C(CCC=O)C1C2 (stereo not drawn) [Material 781]	–	–	K (Log of liquid dish neat product liquid-air partition coefficient greater than or equal to −7)	F (Probability of Ingredient Color Instability<71%)	–
CC1=C2CC(C(C)(C)O)CCC2(C)CCC1 (stereo not drawn) [Material 872]	–	–	K (Log of liquid dish neat product liquid-air partition coefficient greater than or equal to −7)	F (Probability of Ingredient Color Instability<71%)	Comment Code: Log of liquid dish neat product liquid-air partition coefficient ([1]; code letters K, L): K (Log of liquid dish neat product liquid-air partition coefficient greater than or equal to −7)
CCCCCCC/C=C\CCC=O [Material 1045]	–	–	K (Log of liquid dish neat product liquid-air partition coefficient greater than or equal to −7)	F (Probability of Ingredient Color Instability<71%)	–
CCOC(=O)C1OC1(C)c1ccccc1 (stereo not drawn) [Material 377]	K (Log of liquid dish neat product liquid-air partition coefficient greater than or equal to −7)	F (Probability of Ingredient Color Instability<71%)	–	–	–
CCCCCCCCCCCCCC=O [Material 36]	K (Log of liquid dish neat product liquid-air partition coefficient greater than or equal to −7)	F (Probability of Ingredient Color Instability<71%)	–	–	–
CC1=C2CC(C(C)(C)O)CCC2(C)CCC1 (stereo not drawn) [Material 329]	K (Log of liquid dish neat product liquid-air partition coefficient greater than or equal to −7)	F (Probability of Ingredient Color Instability<71%)	–	–	Comment Code: Log of liquid dish neat product liquid-air partition coefficient ([1]; code letters K, L): K (Log of liquid dish neat product liquid-air partition coefficient greater than or equal to −7)
CC1=CCC(C(C)CC=O)CC1 (stereo not drawn) [Material 159]	K (Log of liquid dish neat product liquid-air partition coefficient greater than or equal to −7)	F (Probability of Ingredient Color Instability<71%)	–	–	–
CC1CC=CCCCCCCCC(=O)OCC1 (stereo not drawn) [Material 52]	K (Log of liquid dish neat product liquid-air partition coefficient greater than or equal to −7)	F (Probability of Ingredient Color Instability<71%)	–	–	–
CCCCCCCCCC=CC=O [Material 806]	–	–	K (Log of liquid dish neat product liquid-air partition coefficient greater than or equal to −7)	F (Probability of Ingredient Color Instability<71%)	–
